From publication PMC1413570, “Testing Electrostatic Complementarity in Enzyme Catalysis: Hydrogen Bonding in the Ketosteroid Isomerase Oxyanion Hole” (PLoS Biology, 2006)
Read-outs that look alike come from different tables or passages of the source. Marks after values point to notes of the source that are not given here.

Assays:
[1] = biological target: pKSI^D40N (ketosteroid isomerase) (Pseudomonas putida, UniProt P07445, D34C/D40N); assay: biochemical; assay type: binding
[2] = biological target: tKSI^D40N (ketosteroid isomerase) (Comamonas testosteroni, UniProt P00947, D38N); assay: biochemical; assay type: binding, Commamonas testosteroni
tKSI^D40N (ketosteroid isomerase), sequence (P00947 whole entry D38N): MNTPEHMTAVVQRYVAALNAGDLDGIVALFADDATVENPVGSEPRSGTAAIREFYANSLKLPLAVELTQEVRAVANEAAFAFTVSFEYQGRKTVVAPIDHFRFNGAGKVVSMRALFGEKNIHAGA

[3] = biological target: pKSI^D40N (Pseudomonas putida, UniProt P07445, D34C/D40N); assay type: binding; settings: pH 7.2, 25 °C
pKSI^D40N, sequence (P07445 whole entry D34C/D40N): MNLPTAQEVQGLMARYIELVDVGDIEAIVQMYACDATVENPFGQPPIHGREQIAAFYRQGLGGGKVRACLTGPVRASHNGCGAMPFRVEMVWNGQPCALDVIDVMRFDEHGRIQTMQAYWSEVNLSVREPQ
Experimental: Briefly, the affinity and enthalpy of binding of a high-affinity reference ligand (L ref) were first determined by direct titration of KSI ( Figure 14A) [ [147]]. […] Prior to ITC experiments, enzyme was dialyzed into buffer containing 10 mM HEPES (pH 7.2), 100 mM NaCl, 0.1 mM EDTA, 0.1 mM Tri(2-carboxyethyl)phosphine hydrochloride. All ligands were dissolved in the final dialysis buffer, and all samples were degassed under vacuum. ITC experiments were performed using a VP-ITC (MicroCal, Northampton, Massachusetts, United States) at 25 °C.
After background subtraction, the data were fit by nonlinear least squares regression using a displacement model, with the stoichiometry, association constant, and change of enthalpy of interaction of the weak ligand as the free variables, and the association constant and change of enthalpy of the tight ligand fixed based on the values obtained from direct titration [ [146]].

[4] = Enthalpies of ionization of phenols by titration with NaOH; assay type: physicochemical
Text: The enthalpy of ionization of HEPES, used to correct for proton transfer to buffer, is 5.02 kcal/mol [ [149]].

[5] = set-up: method as in earlier work; settings: cited from earlier work
[6] = Determination of phenol pKa values (literature or spectral titration)
[7] = biological target: T1, tKSI^D40N (Comamonas testosteroni, UniProt P00947, D38N); set-up: species or system Commamonas testosteroni; settings: for δ1, chemical shift of most downfield peak in complex / δ2, chemical shift of second downfield peak in complex: pH 7.2, −3 °C
T1 sequence (P00947 whole entry D38N, looked up): as the sequence (P00947 whole entry D38N) above

[8] = physchem
[9] = from literature; cited from earlier work
[10] = biological target: T1, tKSI^D40N; settings: read-out: apparent affinity, previous assay; pH 7; cited from earlier work
[11] = biological target: KSI; set-up: method as in PMID 7918439; settings: less precise estimate; read-out: affinity of equilenin estimated by previous assays; cited from earlier work
[12] = pH 8, errors in parenthesis are average deviations, read-out: apparent affinity at pH 8 ([picture])
[13] = Displacement assay, phenolate form
[14] = Displacement assay, uncorrected for enzyme ionization enthalpy
[15] = solution with ionic strength 100 mM maintained with NaCl
[16] = spectral titration, 25 °C, ionic strength 100 mM
[17] = apparent affinity at pH 8 ([picture]), pH 8, errors in parenthesis are average deviations

pKSI^D40N (ketosteroid isomerase), sequence (P07445 whole entry D34C/D40N): as the sequence (P07445 whole entry D34C/D40N) above

## Oc1ccc(F)cc1 [Phenol 4-F]
[1]; [12]
  Kd: 133 µM
[2]; [12]
  Kd: 320 µM
[3]; [13]
  ∆G of binding: -11.34 (0.02) kcal/mol
[3]; [14]
  ∆Hrel (relative enthalpy of binding): -9.8 (0.1) kcal/mol
[4]; Ionic strength 0.0
  ∆Hion (heat of ionization): 5.97 (0.03)
[4]; Ionic strength 0.1
  ∆Hion (heat of ionization): 6.21 (0.06)
[5]
  ∆Hion Lit value: 5.93 (0.05)

## Oc1ccc(F)c(F)c1 [3,4-F2]
[1]; [12]
  Kd: 31 µM
[2]; [12]
  Kd: 69 µM
[3]; [13]
  ∆G of binding: -11.14 (0.01) kcal/mol
[3]; [14]
  ∆Hrel (relative enthalpy of binding): -8.53 (0.05) kcal/mol
[4]; Ionic strength 0.1
  ∆Hion (heat of ionization): 7.04 (0.06)

## CC(C)c1cccc(O)c1 [Phenol 3-isopropyl, 3-isopropylphenol]
[6]; [15]
  pKa: 9.9

## Oc1cc(F)cc(F)c1F [2,3,5-F3, 2,3,5-trifluorophenol]
[6]; [15]
  pKa: 7.1

## Oc1cc(F)cc(F)c1 [3,5-F2]
[1]; [12]
  Kd: 8.4 µM
[2]; [12]
  Kd: 20 µM
[3]; Direct Titration
  ∆G of binding: -11.23 (0.03) kcal/mol
  ∆Hrel (relative enthalpy of binding): -6.9 (0.1) kcal/mol
[3]; [13]
  ∆G of binding: -11.1 (0.2) kcal/mol
[3]; [14]
  ∆Hrel (relative enthalpy of binding): -6.7 (0.8) kcal/mol
[4]; Ionic strength 0.1
  ∆Hion (heat of ionization): 5.73 (0.07)

## Oc1ccc(Cl)c(Cl)c1 [3,4-Cl2, 3,4-dichlorophenol]
[7]
  δ1, chemical shift of most downfield peak in complex: 16.4 ppm
  δ2, chemical shift of second downfield peak in complex: 15.6 ppm
[8]
  pKa: 8.5

## O=[N+]([O-])c1ccc(O)cc1 [Phenol 4-NO2, 4-nitrophenol]
[1]; apparent affinity of the phenol for the enzyme (Equation 3), pH 6.9
  Kd: 1.8 ± 0.2 µM
[1]; pH-independent affinity of the phenolate form for the protonated enzyme (Equation 4), converted from apparent affinity at pH 6.9
  Kd: 0.026 ± 0.002 µM
[7]
  δ1, chemical shift of most downfield peak in complex: 15.0 ppm
  δ2, chemical shift of second downfield peak in complex: 14.8 ppm

## O=[N+]([O-])c1ccc(O)cc1F [Phenol 3-F-4-NO2, 3-fluoro-4-nitrophenol]
[7]
  δ1, chemical shift of most downfield peak in complex: 14.4 ppm
  δ2, chemical shift of second downfield peak in complex: 14.3 ppm
[8]
  pKa: 6.1

## Oc1cccc(C(F)(F)F)c1 [Phenol 3-CF3]
[7]
  δ1, chemical shift of most downfield peak in complex: 17.0 ppm
  δ2, chemical shift of second downfield peak in complex: 16.1 ppm
[6]; [16]
  pKa: 8.7

## O=[N+]([O-])c1ccc(O)cc1C(F)(F)F [Phenol 3-CF3-4-NO2]
[7]
  δ1, chemical shift of most downfield peak in complex: 14.9 ppm
  δ2, chemical shift of second downfield peak in complex: 14.5 ppm
[6]; [16]
  pKa: 6.3

## Oc1cccc(I)c1 [Phenol 3-I, 3-iodophenol]
[7]
  δ1, chemical shift of most downfield peak in complex: 16.8 ppm
  δ2, chemical shift of second downfield peak in complex: 15.9 ppm
[9]
  pKa: 9.2

## Oc1cccc(F)c1 [Phenol 3-F, 3-fluorophenol]
[1]; [17]
  Kd: 41 µM
[2]
  Kd: 110 µM
[3]; [13]
  ∆G of binding: -11.10 (0.05) kcal/mol
[4]; Ionic strength 0.1
  ∆Hion (heat of ionization): 6.29 (0.05)

## Oc1ccc(C(F)(F)F)cc1 [Phenol 4-CF3]
[7]
  δ1, chemical shift of most downfield peak in complex: 16.4 ppm
  δ2, chemical shift of second downfield peak in complex: 15.9 ppm
[6]; [16]
  pKa: 8.9

## O=[N+]([O-])c1cc(O)ccc1Cl [Phenol 3-NO2-4-Cl]
[7]
  δ1, chemical shift of most downfield peak in complex: 15.8 ppm
  δ2, chemical shift of second downfield peak in complex: 15.4 ppm
[6]; [16]
  pKa: 7.8

## Oc1cccc(Cl)c1 [Phenol 3-Cl]
[7]
  δ1, chemical shift of most downfield peak in complex: 17.1 ppm
  δ2, chemical shift of second downfield peak in complex: 15.6 ppm

## CC(=O)c1ccc(O)cc1 [Phenol 4-acetyl, 4-Acetylphenol]
[7]
  δ1, chemical shift of most downfield peak in complex: 16.0 ppm
  δ2, chemical shift of second downfield peak in complex: 15.4 ppm
[9]
  pKa: 8.1

## Cc1cc(O)ccc1F [Phenol 4-F-3-CH3, 4-Fluoro-3-methylphenol]
[6]; [15]
  pKa: 9.8

## Oc1cccc(F)c1F [2,3-F2]
[6]; [16]
  pKa: 7.7^b

## O=[N+]([O-])c1cccc(O)c1 [Phenol 3-NO2]
[7]
  δ1, chemical shift of most downfield peak in complex: 16.4 ppm
  δ2, chemical shift of second downfield peak in complex: 15.5 ppm

## Oc1ccc(I)cc1 [Phenol 4-I]
[7]
  δ1, chemical shift of most downfield peak in complex: 16.7 ppm

## Oc1cc(Cl)cc(Cl)c1 [3,5-Cl2]
[7]
  δ1, chemical shift of most downfield peak in complex: 16.6 ppm
  δ2, chemical shift of second downfield peak in complex: 14.8 ppm
[6]; [16]
  pKa: 8.1

## Oc1ccccc1 [Phenol, phenol]
[1]; [17]
  Kd: 135 µM
[2]; [17]
  Kd: 410 µM
[2]; apparent affinity, new assay, pH 7
  Kd: 430 ± 80 µM
[3]; [13]
  ∆G of binding: -11.3 (0.1) kcal/mol
[5]
  ∆Hion Lit value: 6.1 (0.2)
[10]
  Kd: 61 ± 10 µM

## Oc1c(F)c(F)c(F)c(F)c1F [pentafluorophenol]
[8]
  pKa: 5.7

## Oc1cc(F)c(F)cc1F [2,4,5-F3, 2,4,5-trifluorophenol]
[6]; [15]
  pKa: 7.7

## CCc1cccc(O)c1 [Phenol 3-ethyl, 3-ethylphenol]
[9]
  pKa: 9.9

## Oc1ccc(F)cc1F [2,4-F2]
[6]; [16]
  pKa: 8.6^b

## N#Cc1ccc(O)cc1 [Phenol 4-CN, 4-cyanophenol]
[1]; Kd from fit of pH dependence of binding to Equation 4, phenol pKa fixed at 8.0, enzyme pKa 5.5
  Kd: 0.016 ± 0.002 µM
[7]
  δ1, chemical shift of most downfield peak in complex: 15.6 ppm

## Oc1cc(F)ccc1F [2,5-F2]
[6]; [16]
  pKa: 7.7^b

## Cc1ccc(O)cc1 [Phenol 4-methyl, 4-methylphenol]
[9]
  pKa: 10.2

## Oc1ccccc1F [Phenol 2-F, 2-fluorophenol]
[9]
  pKa: 8.8

## Oc1ccc(Cl)cc1 [Phenol 4-Cl, 4-chlorophenol]
[2]
  Kd: 40 ± 7 µM
[10]
  Kd: 7.9 ± 1.3 µM

## C[C@]12CCc3c(ccc4cc(O)ccc34)[C@@H]1CCC2=O [equilenin]
[7]; spectrum not shown
  chemical shift of the principal downfield peak upon binding: 17.6 ppm
[11]
  Kd: 0.0001 to 0.001 µM
[6]; solution of 100 mM ionic strength maintained with NaCl
  pKa: 9.7

## Oc1cc(F)c(F)c(F)c1 [3,4,5-F3, 3,4,5-trifluorophenol]
[1]; [17]
  Kd: 6.1 µM
[2]
  Kd: 17 µM
[3]; Direct Titration
  ∆G of binding: -11.51 (0.04) kcal/mol
  ∆Hrel (relative enthalpy of binding): -6.0 (0.1) kcal/mol
[3]; [13]
  ∆G of binding: -11.1 (0.1) kcal/mol
[3]; [14]
  ∆Hrel (relative enthalpy of binding): -5.8 (0.3) kcal/mol
[7]
  δ1, chemical shift of most downfield peak in complex: 16.3 ppm
  δ2, chemical shift of second downfield peak in complex: 14.9 ppm
[4]; Ionic strength 0.1
  ∆Hion (heat of ionization): 5.62 (0.06)
[6]
  pKa: 8.2
[6]; [15]
  pKa: 8.2

## Oc1cc(F)cc(C(F)(F)F)c1 [Phenol 3-F-5-CF3, 3-fluoro-5-(trifluoromethyl)phenol]
[7]
  δ1, chemical shift of most downfield peak in complex: 16.4 ppm
  δ2, chemical shift of second downfield peak in complex: 15.6 ppm
[6]; solution of ionic strength 100 mM maintained with NaCl
  pKa: 8.2

## N#Cc1cccc(O)c1 [Phenol 3-CN]
[7]
  δ1, chemical shift of most downfield peak in complex: 16.4 ppm
  δ2, chemical shift of second downfield peak in complex: 15.6 ppm

## Oc1cccc(Br)c1 [Phenol 3-Br]
[7]
  δ1, chemical shift of most downfield peak in complex: 17.0 ppm
  δ2, chemical shift of second downfield peak in complex: 15.6 ppm

## Oc1ccc(F)c(F)c1F [2,3,4-F3]
[6]; [16]
  pKa: 7.7^b

## CC(C)c1ccc(O)cc1 [Phenol 4-isoproyl, 4-isopropylphenol]
[8]
  pKa: 10
